# According to ChEMBL document CHEMBL5620412, “Discovery of benzofuran-2-carboxylic acid derivatives as lymphoid tyrosine phosphatase (LYP) inhibitors for cancer immunotherapy” (Eur J Med Chem, 2023):
# pIC50: −log10 of the molar value. Calls of active or inactive are those of the source. The calls are words filed in the database; no cut-off is given here.
# Tests used:
# [1] = Selectivity ratio of IC50 for inhibition of N-terminal His-tagged PTPN5 catalytic domain (1 to 294 residues) (unknown origin) expressed in Escherichia coli BL21 (DE3) cells to IC50 for inhibition of N-terminal His-tagged LYP catalytic domain (1 to 294 residues) (unknown origin) expressed in Escherichia coli BL21 (DE3) cells using pNPP as substrate
# [2] = target: T1, Protein phosphatase Slingshot homolog 2 (Homo sapiens, UniProt Q76I76); assay: Inhibition of N-terminal His-tagged SSH2 catalytic domain (1 to 294 residues) (unknown origin) expressed in Escherichia coli BL21 (DE3) cells
# T1 sequence (Q76I76 whole entry): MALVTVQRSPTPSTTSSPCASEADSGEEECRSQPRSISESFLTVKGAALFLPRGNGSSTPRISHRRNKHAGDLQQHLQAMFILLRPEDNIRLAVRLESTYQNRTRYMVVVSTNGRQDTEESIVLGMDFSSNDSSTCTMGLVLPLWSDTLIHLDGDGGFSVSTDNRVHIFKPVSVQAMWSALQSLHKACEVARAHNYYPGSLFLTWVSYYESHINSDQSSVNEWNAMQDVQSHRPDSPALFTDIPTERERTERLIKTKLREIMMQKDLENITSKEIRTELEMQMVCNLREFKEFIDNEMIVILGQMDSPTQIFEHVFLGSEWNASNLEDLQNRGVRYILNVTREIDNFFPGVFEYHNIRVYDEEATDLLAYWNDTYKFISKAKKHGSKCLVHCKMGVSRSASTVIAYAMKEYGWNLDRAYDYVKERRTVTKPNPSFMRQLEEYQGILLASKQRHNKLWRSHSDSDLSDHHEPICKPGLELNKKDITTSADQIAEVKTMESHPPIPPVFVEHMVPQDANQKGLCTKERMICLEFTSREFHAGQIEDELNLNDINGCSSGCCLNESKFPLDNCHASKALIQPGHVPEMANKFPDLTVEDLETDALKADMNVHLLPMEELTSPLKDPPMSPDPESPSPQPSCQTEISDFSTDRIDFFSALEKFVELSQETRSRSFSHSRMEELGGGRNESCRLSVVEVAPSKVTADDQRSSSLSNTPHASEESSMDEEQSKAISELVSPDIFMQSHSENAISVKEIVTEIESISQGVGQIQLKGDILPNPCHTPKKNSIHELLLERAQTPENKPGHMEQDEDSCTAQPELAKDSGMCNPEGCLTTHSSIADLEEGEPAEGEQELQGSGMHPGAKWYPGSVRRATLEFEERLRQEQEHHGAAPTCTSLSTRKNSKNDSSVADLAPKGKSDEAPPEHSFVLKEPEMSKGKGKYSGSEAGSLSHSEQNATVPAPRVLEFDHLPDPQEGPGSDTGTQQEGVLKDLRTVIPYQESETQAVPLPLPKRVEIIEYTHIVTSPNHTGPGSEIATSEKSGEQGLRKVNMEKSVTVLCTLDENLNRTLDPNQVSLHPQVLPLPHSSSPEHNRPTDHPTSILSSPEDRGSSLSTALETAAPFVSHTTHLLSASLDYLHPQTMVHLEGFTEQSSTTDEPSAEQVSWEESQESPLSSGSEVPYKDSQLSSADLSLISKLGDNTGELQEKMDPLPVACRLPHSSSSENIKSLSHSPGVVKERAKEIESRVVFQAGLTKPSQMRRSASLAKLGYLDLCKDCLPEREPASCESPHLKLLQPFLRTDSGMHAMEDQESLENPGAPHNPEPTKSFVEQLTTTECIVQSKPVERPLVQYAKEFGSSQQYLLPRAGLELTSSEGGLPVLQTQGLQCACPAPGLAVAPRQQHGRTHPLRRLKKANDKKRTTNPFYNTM
# [3] = target: T2, Tyrosine-protein phosphatase non-receptor type 12 (Homo sapiens, UniProt Q05209); assay: Inhibition of N-terminal His-tagged PTPN12 catalytic domain (1 to 294 residues) (unknown origin) expressed in Escherichia coli BL21 (DE3) cells
# T2 sequence (Q05209 whole entry): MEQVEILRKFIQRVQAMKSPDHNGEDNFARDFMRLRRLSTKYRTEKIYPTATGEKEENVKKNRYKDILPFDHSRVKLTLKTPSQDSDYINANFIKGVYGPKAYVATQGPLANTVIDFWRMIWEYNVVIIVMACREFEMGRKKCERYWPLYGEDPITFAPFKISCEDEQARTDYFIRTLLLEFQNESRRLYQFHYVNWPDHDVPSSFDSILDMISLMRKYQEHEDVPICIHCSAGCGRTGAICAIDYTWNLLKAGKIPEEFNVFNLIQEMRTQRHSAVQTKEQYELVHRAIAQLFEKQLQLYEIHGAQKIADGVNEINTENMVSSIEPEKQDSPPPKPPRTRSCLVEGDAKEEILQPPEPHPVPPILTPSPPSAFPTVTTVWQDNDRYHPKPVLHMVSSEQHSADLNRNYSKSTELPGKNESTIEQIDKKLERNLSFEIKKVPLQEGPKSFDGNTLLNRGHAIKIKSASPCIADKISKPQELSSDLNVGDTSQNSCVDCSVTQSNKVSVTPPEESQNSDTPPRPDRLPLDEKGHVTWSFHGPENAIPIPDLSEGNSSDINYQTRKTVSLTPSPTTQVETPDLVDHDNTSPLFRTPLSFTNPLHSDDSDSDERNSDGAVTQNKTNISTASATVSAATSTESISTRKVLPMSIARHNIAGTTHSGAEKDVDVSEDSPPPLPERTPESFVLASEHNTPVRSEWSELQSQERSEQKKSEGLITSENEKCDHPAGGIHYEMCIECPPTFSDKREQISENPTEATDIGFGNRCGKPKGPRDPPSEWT
# [4] = system: Jurkat T; assay: Activation of TCR signaling in human Jurkat T cells assessed as increase in LCK phosphorylation preincubated with compound for 1 hrs followed by anti-CD3 stimulation and measured after 45 mins by immunoblot analysis; assay type: cell-based; conditions: filed as activator, time 105.0 min
# [5] = system: Jurkat T; assay: Activation of TCR signaling in […] transfected human Jurkat T cells assessed as increase in ERK phosphorylation preincubated with compound for 1 hrs followed by anti-CD3 stimulation and measured after 45 mins by immunoblot analysis; assay type: cell-based; conditions: time 105.0 min
# [6] = system: MC-38; assay: Antitumor immunity against mouse MC-38 cells implanted in syngenic C57BL/6J mouse model assessed as increase in CD4+ T cell proportion in tumor at 50 mg/kg, IG administered twice daily for 14 days by flow cytometric analysis; assay type: functional, organism-based; conditions: time 14.0 day
# [7] = system: MC-38; assay: Antitumor immunity against mouse MC-38 cells implanted in syngenic C57BL/6J mouse model assessed as increase in Ki67 positive CD4+ T cells at 50 mg/kg, IG administered twice daily for 14 days by Ki67 staining based flow cytometric analysis; assay type: functional, organism-based; conditions: time 14.0 day
# [8] = system: MC-38; assay: Antitumor immunity against mouse MC-38 cells implanted in syngenic C57BL/6J mouse model assessed as increase in TNF-alpha expression at 50 mg/kg, IG administered twice daily for 14 days; assay type: functional, organism-based; conditions: time 14.0 day
# [9] = system: MC-38; assay: Antitumor immunity against mouse MC-38 cells implanted in syngenic C57BL/6J mouse model assessed as upregulation of PD1 expression in CD8+ T cells at 50 mg/kg, IG administered twice daily for 14 days by flow cytometric analysis; assay type: functional, organism-based; conditions: time 14.0 day
# [10] = Upregulation of PD-L1 expression in mouse MC-38 cells at 20 uM incubated for 48 hrs by flow cytometric analysis (reference value: 23.3%); assay type: functional
pIC50 [2],pIC50 [3],SMILES,Ratio IC50 [1],Activity [4],Activity [5],Activity [6],Activity [7],Activity [8],Activity [9],Activity [10] [%]
< 4.70,4.93,O=C(O)c1cc2cc(N(Cc3ccc(OCc4ccccc4)cc3)S(=O)(=O)c3ccc(-c4ccccc4)cc3)ccc2o1,> 3.5,Active,inactive,Active,Active,Active,Active,59.2
< 4.70,4.91,COc1ccc(-c2ccc(CN(c3ccc4oc(C(=O)O)cc4c3)S(=O)(=O)c3ccc(Cl)c([N+](=O)[O-])c3)cc2)cc1,–,Active,inactive,Active,Active,Active,Active,43.6
< 4.70,5.19,O=C(O)c1cc2cc(N(Cc3cccc(-c4ccccc4)c3)S(=O)(=O)c3ccc(-c4ccccc4)cc3)ccc2o1,> 5.5,–,–,–,–,–,–,–
< 4.70,4.97,O=C(O)c1cc2cc(N(Cc3ccc(-c4ccccc4)cc3)S(=O)(=O)c3ccc(-c4cccc(O)c4)cc3)ccc2o1,> 5.5,–,–,–,–,–,–,–
< 4.70,5.09,CC(=O)C1=C(C)N=c2s/c(=C/c3ccc(OCc4ccc(C(=O)O)cc4)cc3)c(=O)n2C1c1ccc(N(C)C)cc1 (configuration not stated),–,–,–,–,–,–,–,–
